Patent US5849735A, “Tricyclic benzazepine vasopressin antagonists” (American Cyanamid Company, priority 1995, dated 1998)

Tests used:
[1] = biological target: T1, vasopressin V1 receptor (human platelet membranes) (Homo sapiens, UniProt P37288); assay: Binding to Vasopressin V1 receptor subtype in Human Platelet Membranes
T1 construct: tissue Hudson Valley Blood Services; host or cells: human platelets (frozen platelet rich plasma)
Experimental: Radioligand Binding Experiments with Human Platelet Membranes
(a) Platelet Membrane Preparation
Frozen platelet rich plasma (PRP), received from the Hudson Valley Blood Services, are thawed to room temperature. (Platelet Source: Hudson Valley Blood Services, Westchester Medical Center, Valhalla, N.Y.). The tubes containing the PRP are centrifuged at 16,000×g for 10 minutes at 4° C. and the supernatant fluid discarded. The platelets resuspended in an equal volume of 50.0 mM Tris.HCL, pH 7.5 containing 120 mM NaCl and 20.0 mM EDTA. The suspension is recentrifuged at 16,000×g for 10 minutes. This washing step is repeated one more time. The wash discarded and the lysed pellets homogenized in low ionic strength buffer of Tris. HCl, […], pH 7.5 containing 5.0 mM EDTA. The homogenate is centrifuged at 39,000×g for 10 minutes. The resulting pellet is resuspended in Tris.HCl buffer, 70.0 mM, pH 7.5 and recentrifuged at 39,000×g for 10 minutes. […]
In wells of a 96 well format microtiter plate, add 100 ml of 50.0 mM Tris. […] Non specific binding is measured in the presence of 1.0 mM of unlabeled ligand (Manning or Arg^8 Vasopressin). […] The radioactivity caught on the filter disks is determined by the addition of liquid scintillant and counting in a liquid scintillator.

[2] = biological target: T2, human V2 vasopressin receptor (Homo sapiens, UniProt P30518); assay: Binding to Membranes of Mouse Fibroblast Cell Line (LV-2) Transfected with the cDNA Expressing the Human V2 Vasopressin Receptor
T2 construct: expressed in transfected cells; host or cells: mouse fibroblast cell line LV-2
Experimental: Binding to Membranes of Mouse Fibroblast Cell Line (LV-2) Transfected with the cDNA Expressing the Human V2 Vasopressin Receptor
Flasks of 175 ml capacity, continuing attached cells grown to confluence, are cleared of culture medium by aspiration. The flasks containing the attached cells are rinsed with 2×5 ml of phosphate buffered saline (PBS) and the liquid aspirated off each time. […] The protein content is determined by the Lowry method and the receptor membranes are suspended in 50.0 mM Tris.HCl buffer containing 0.1 mM phenylmethylsulfonylfluoride (PMSF) and 0.2% bovine serum albumin (BSA) to give 2.5 mg receptor protein per ml of suspension.
For binding experiments, the following is added in ml volume to wells of a 96 well format of a microtiter plate: 100.0 ml of 100.0 mM Tris.HCl buffer containing 0.2% heat inactivated BSA, 10.0 mM MgCl2 and a mixture of protease inhibitors: leupeptin, 1.0 mg %; aprotinin, 1.0 mg %; 1,10-phenanthroline, 2.0 mg %; trypsin inhibitor, 10.0 mg % and 0.1 mM PMSF., 20.0 ml of [^3 H] […] Non specific binding is assessed in the presence of 1.0 mM of unlabeled ligand, added in 20 ml volume. […] The radioactivity trapped on the filter disk by the ligand-receptor complex is assessed by liquid scintillation counting in a Packard LS Counter, with an efficiency of 65% for tritium.

T2 sequence (P30518 whole entry): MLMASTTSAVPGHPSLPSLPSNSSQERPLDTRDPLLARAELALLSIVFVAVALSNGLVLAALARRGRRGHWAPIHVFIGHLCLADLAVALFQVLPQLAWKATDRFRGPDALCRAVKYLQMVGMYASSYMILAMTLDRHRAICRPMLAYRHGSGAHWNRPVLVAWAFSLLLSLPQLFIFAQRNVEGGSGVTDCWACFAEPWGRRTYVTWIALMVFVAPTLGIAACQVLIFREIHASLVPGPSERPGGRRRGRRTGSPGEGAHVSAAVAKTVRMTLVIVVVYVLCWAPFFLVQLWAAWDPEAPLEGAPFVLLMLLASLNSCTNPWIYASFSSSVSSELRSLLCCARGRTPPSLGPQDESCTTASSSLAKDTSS
T1 sequence (P37288 whole entry): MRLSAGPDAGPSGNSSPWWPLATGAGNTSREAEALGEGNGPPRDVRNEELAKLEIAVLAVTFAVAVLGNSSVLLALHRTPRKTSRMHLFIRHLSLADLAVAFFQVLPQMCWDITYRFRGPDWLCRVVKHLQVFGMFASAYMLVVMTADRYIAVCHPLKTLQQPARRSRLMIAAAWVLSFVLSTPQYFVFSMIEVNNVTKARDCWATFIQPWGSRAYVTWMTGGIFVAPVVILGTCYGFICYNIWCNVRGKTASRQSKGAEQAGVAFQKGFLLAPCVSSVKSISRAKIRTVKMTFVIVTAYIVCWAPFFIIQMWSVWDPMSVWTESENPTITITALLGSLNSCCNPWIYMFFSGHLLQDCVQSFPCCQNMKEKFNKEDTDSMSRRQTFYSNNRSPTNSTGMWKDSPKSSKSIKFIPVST

Row | V1 % ([1]; "(μM)" (concentration not given), 90 min) | inhibition at 10 µM ([2]; ** human V2, LV-2 membranes, 10 μM) | IC50 [1] | IC50 ([2]; ** human V2 receptor, LV-2 membranes) | Structure (SMILES)
1 | 72% | 26% |  |  | CCCCOc1ccc(C(=O)N2Cc3ccccc3Cc3ccccc32)cc1 [Example 24]
2 |  |  | 0.014 µM | 1.8 µM | O=C(c1ccc(-c2ccccc2)cc1)N1Cc2sccc2Cc2ccccc21 [Example 27, 9-([1,1'-Biphenyl]-4-ylcarbonyl)-9,10-dihydro-4H-thieno[2,3-c][1]benzazepine]
